Data taken from US20080058339A1, “New compounds” (Biovitrum, priority 2006, published 2008).

Biological target: T1, human GPR119 receptor (Homo sapiens, UniProt Q8TDV5)
T1 construct: expressed in transfected cells
T1 sequence (Q8TDV5 1-335): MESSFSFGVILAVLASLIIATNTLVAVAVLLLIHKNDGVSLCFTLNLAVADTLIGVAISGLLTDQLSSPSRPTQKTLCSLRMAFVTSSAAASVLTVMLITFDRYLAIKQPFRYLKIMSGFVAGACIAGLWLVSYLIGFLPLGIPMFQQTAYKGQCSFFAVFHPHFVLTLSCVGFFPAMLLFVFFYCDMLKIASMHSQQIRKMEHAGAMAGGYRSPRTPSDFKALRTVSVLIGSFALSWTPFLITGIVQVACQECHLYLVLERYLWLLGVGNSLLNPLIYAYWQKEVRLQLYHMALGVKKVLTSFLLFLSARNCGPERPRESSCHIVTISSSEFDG
Experiment: Human GPR119 activity assay (cAMP HTRF in HEK293-hGPR119 cells)
Type: cell-based
Conditions: cAMP stimulation in HEK293 cells stably expressing human GPR119, 20 min incubation, read-out: Agonist potency at the human GPR119, EC50
Method: Human GPR119 Activity Assay
Agonists to the human GPR119 receptor were characterized by measuring human GPR119 receptor-mediated stimulation of cyclic AMP (cAMP) in HEK 293 cells expressing the human GPR119 receptor.
Briefly, cAMP content was determined using a cAMP kit based on HTRF technology (Homogeneous Time-Resolved Fluorescence, Cisbio Cat. no. 62AM2PEC). HEK293 cells stably expressing the human GPR119 receptor (HEK293-hGPR119 cells) were cultured in DMEM (Gibco #31966-021) supplemented with 10% Bovine Calf Serum (Hyclone #SH30072.03), and, 500 μg/mL Hygromycin B (Roche Diagnostics 843555). At 80% confluency, cells were detached using Trypsine and aliquoted at a density of 5×10^6 cells/mL in freezing medium (DMEM (Gibco # 31966-021), 20% BCS (Hyclone #SH30072.03), 10% DMSO (Sigma #D2650) and stored at −135° C. On the experimental day, HEK293-hGPR119 cells were thawn and diluted to 0.4×10^6 cells/mL in assay buffer (1×HBSS (Gibco Cat. no. 14025-049), 20 mM Hepes (Gibco Cat. no. 15630-056), 0.1% BSA, pH 7.4) and incubated with test substances for 20 min at room temperature. After addition of HTRF reagents diluted in lysis buffer, the 96- or 384-well plates were incubated 1 hour, followed by measuring the fluorescence ratio at 665 nm/620 nm. […]

| SMILES | EC50 [nM] |
| --- | --- |
| CCN(Cc1ccc(-c2ccc(S(C)(=O)=O)cc2)nn1)C1CCN(C(=O)OC(C)(C)C)CC1 [Example A4, tert-Butyl 4-[ethyl({6-[4-(methylsulfonyl)phenyl]pyridazin-3-yl}methyl)amino]-piperidine-1-carboxylate] | 83 |
| CC(C)(C)OC(=O)N1CCC(COc2ccc(-c3ccc(S(C)(=O)=O)cc3)nn2)CC1 [Example A1, tert-Butyl 4-[({6-[4-(methylsulfonyl)phenyl]pyridazin-3-yl}oxy)methyl]piperidine-1-carboxylate] | 46 |
